Experimental data from the Kinase Knowledgebase extract (Sharma et al. 2016).

Key:
Test in all cases: Enzyme Assay
PIK3CD (Human) = PIK3CD (Human) (UniProt O00329)
PIK3CB (Human) = PIK3CB (Human) (UniProt P42338)
PIK3CG (human) = PIK3CG (human) (UniProt P48736)
PIK3CA (human) = PIK3CA (human) (UniProt P42336)
PIK3CA (human), sequence (P42336 whole entry, looked up): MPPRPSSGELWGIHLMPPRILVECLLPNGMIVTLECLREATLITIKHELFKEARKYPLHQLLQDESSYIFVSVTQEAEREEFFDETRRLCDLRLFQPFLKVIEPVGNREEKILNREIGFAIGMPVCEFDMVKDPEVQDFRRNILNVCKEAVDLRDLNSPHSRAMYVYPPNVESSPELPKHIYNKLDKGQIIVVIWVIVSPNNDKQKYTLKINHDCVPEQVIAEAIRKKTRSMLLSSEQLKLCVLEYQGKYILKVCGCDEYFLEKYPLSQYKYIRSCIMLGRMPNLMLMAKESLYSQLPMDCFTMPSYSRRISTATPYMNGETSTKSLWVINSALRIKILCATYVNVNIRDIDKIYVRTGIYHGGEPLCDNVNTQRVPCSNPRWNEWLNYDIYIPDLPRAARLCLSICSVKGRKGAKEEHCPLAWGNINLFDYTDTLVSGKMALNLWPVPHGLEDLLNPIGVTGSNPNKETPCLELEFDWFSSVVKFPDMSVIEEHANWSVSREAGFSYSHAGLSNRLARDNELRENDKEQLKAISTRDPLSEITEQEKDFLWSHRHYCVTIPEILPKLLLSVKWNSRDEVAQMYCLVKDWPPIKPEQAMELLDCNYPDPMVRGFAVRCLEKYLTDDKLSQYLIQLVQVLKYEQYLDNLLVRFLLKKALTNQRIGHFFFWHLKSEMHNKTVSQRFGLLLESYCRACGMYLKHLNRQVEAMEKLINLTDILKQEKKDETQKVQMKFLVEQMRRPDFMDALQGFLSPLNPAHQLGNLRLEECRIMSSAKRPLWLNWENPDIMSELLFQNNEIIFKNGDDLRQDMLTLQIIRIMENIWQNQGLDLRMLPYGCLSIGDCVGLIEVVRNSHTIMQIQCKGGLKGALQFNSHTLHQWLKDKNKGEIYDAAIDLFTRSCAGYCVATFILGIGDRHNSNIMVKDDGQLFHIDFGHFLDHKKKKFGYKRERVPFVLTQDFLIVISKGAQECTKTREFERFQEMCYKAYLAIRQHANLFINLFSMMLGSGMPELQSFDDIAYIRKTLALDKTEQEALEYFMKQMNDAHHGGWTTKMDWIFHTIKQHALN

PIK3CD (Human), sequence (O00329 whole entry, looked up): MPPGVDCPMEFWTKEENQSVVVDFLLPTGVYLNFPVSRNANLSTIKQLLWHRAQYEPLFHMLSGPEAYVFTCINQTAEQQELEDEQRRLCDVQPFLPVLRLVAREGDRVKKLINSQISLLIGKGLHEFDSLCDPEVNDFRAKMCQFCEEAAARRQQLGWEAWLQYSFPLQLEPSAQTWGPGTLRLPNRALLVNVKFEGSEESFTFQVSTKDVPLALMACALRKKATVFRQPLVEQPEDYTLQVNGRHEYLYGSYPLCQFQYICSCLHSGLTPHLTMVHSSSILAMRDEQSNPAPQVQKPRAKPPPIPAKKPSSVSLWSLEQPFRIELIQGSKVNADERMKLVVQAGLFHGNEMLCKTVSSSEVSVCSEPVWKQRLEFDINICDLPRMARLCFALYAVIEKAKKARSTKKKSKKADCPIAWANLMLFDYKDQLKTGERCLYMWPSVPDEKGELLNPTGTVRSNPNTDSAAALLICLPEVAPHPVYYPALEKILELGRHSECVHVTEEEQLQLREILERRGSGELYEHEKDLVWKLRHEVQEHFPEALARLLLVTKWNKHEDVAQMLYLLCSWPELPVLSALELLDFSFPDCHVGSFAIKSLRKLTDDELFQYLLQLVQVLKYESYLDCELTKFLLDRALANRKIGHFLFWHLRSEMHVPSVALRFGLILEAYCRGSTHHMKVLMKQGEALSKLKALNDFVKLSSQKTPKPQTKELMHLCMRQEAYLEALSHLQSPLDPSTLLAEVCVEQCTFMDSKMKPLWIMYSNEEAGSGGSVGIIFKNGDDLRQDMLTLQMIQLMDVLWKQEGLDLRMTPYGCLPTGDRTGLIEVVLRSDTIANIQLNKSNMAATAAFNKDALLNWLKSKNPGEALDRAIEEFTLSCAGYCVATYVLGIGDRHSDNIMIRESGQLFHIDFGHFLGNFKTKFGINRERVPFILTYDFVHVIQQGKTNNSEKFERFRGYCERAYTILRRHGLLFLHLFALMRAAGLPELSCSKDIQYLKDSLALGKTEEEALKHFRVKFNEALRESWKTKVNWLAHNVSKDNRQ
PIK3CB (Human), sequence (P42338 whole entry, looked up): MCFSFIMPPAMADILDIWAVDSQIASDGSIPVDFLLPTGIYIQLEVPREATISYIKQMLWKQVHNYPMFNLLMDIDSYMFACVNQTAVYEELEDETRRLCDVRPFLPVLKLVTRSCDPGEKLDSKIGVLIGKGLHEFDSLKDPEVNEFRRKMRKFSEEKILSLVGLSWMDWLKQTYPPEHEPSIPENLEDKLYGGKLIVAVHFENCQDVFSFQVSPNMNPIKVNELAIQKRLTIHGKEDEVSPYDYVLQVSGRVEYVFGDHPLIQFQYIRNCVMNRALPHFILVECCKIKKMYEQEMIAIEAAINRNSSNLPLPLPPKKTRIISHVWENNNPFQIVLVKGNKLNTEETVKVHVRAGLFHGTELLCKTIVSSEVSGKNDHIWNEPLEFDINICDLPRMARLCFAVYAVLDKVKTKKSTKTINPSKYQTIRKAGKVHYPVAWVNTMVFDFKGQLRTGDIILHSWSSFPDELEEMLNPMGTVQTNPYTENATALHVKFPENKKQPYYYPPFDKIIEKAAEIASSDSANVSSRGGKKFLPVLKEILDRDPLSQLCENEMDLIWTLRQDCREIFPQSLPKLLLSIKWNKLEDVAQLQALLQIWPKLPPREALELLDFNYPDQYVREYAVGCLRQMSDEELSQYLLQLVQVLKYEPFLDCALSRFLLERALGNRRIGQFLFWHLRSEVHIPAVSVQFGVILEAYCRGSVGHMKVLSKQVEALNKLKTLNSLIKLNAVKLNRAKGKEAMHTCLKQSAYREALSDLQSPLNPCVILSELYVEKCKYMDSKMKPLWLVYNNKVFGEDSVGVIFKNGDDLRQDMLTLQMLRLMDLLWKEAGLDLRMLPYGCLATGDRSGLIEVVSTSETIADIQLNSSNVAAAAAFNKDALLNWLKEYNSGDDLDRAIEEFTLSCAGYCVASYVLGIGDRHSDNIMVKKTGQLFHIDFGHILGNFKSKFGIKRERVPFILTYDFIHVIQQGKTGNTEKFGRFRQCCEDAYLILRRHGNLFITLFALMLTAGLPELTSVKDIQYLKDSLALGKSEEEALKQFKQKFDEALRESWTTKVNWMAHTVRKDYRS
PIK3CG (human), sequence (P48736 whole entry, looked up): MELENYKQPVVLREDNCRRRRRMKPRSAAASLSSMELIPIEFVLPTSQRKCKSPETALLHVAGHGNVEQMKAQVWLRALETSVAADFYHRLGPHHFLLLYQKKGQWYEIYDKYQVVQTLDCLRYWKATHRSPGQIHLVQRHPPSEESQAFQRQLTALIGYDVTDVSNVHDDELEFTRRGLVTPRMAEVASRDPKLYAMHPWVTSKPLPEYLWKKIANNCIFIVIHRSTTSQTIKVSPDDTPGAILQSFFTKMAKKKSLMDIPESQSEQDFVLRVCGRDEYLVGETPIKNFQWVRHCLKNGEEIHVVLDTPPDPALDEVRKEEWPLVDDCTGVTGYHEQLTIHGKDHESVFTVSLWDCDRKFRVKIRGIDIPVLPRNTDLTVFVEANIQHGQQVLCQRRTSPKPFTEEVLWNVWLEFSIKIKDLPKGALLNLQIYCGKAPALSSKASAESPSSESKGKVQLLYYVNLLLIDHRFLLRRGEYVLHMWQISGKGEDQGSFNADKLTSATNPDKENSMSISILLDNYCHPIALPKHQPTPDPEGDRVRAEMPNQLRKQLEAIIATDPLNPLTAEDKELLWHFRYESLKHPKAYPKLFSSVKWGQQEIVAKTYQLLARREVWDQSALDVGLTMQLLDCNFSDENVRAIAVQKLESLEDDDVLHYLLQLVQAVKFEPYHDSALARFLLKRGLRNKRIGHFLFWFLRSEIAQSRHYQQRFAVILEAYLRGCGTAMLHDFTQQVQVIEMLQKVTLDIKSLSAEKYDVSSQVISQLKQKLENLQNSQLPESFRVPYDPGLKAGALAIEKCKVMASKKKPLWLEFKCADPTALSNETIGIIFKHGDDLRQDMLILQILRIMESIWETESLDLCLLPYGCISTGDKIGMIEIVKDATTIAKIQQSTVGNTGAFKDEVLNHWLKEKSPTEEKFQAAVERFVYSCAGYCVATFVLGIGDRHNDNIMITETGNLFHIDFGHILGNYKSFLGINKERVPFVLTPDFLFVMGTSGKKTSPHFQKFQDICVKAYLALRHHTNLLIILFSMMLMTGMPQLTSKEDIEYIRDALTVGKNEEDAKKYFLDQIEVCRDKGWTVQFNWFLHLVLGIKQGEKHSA

Structure (SMILES) | IC50 (PIK3CD (Human)) [nM] | IC50 (PIK3CB (Human)) [nM] | IC50 (PIK3CG (human)) [nM] | IC50 (PIK3CA (human)) [nM]
C[C@H](Nc1ncnc2scnc12)c1cc2cccc(-c3cnn(CCN4CCOCC4)c3)c2c(=O)n1-c1ccccc1 | < 100 | > 10000 | < 100 | 
Cc1ncc(-c2cccc3cc([C@H](C)Nc4ncnc5scnc45)n(-c4ccccc4)c(=O)c23)cn1 | < 100 | > 10000 | 100 to 1000 | 
C[C@H](Nc1ncnc2scnc12)c1cc2cccc(-c3ccc(N)nc3)c2c(=O)n1C1CC1 | < 100 | 100 to 1000 | < 100 | 100 to 1000
C[C@H](Nc1ncnc2scnc12)c1cc2cccc(-c3cncc(F)c3)c2c(=O)n1-c1ccccc1 | < 100 | > 10000 | < 100 | 
Cc1nc2c(N[C@@H](C)c3cc4cccc(Cl)c4c(=O)n3-c3cccc(F)c3)ncnc2s1 |  | > 10000 | > 10000 | > 10000
C[C@H](Nc1ncnc2scnc12)c1cc2cccc(Cl)c2c(=O)n1CCN1CCCC1 | < 100 | 100 to 1000 | > 10000 | > 10000
C[C@H](Nc1ncnc2scnc12)c1cc2cccc(-c3ccc(C(F)(F)F)nc3)c2c(=O)n1-c1ccccc1 | < 100 | > 10000 | 100 to 1000 | > 10000
C[C@H](Nc1ncnc2scnc12)c1cc2cccc(-c3cnc4ccccc4c3)c2c(=O)n1-c1ccccc1 | < 100 | 100 to 1000 | < 100 | 100 to 1000
Cc1cncc(-c2cccc3cc([C@H](C)Nc4ncnc5scnc45)n(-c4ccccc4)c(=O)c23)c1 | < 100 |  | < 100 | 100 to 1000
Cc1nc2c(N[C@@H](C)c3cc4cccc(-c5cnn(C)c5)c4c(=O)n3-c3ccccc3)ncnc2s1 |  | > 10000 |  | > 10000
C[C@H](Nc1ncnc2scnc12)c1cc2scc(Cl)c2c(=O)n1-c1ccccc1 | < 100 | < 100 | < 100 | 
COc1ncc(-c2cccc3cc([C@H](C)Nc4ncnc5scnc45)n(-c4ccccc4)c(=O)c23)s1 | < 100 |  | < 100 | 100 to 1000
C[C@H](Nc1ncnc2scnc12)c1cc2cccc(C(=O)O)c2c(=O)n1-c1ccccc1 |  | > 10000 |  | > 10000
C[C@H](Nc1ccnc2scnc12)c1cc2cccc(Cl)c2c(=O)n1-c1cccc(F)c1 | < 100 | 100 to 1000 | < 100 | 
C[C@H](Nc1ncnc2scnc12)c1cc2cccc(Cl)c2c(=O)n1-c1cccc(F)c1 | < 100 | < 100 | < 100 | 100 to 1000
C[C@H](Nc1ncnc2scnc12)c1cc2scc(-c3cnn(C)c3)c2c(=O)n1-c1ccccc1 | 100 to 1000 | > 10000 | 100 to 1000 | 
C[C@H](Nc1ncnc2scnc12)c1cc2cccc(-c3ccnnc3)c2c(=O)n1-c1ccccc1 | < 100 | > 10000 | < 100 | 
CC(C)n1cc(-c2cccc3cc([C@H](C)Nc4ncnc5scnc45)n(-c4ccccc4)c(=O)c23)cn1 | < 100 | > 10000 | 100 to 1000 | 
C[C@H](Nc1ncnc2scnc12)c1cc2cccc(-c3cnc4c(c3)CCCC4)c2c(=O)n1-c1ccccc1 |  | > 10000 |  | > 10000
COc1cccc(-c2cccc3cc([C@H](C)Nc4ncnc5scnc45)n(-c4ccccc4)c(=O)c23)c1 | < 100 |  | < 100 | 100 to 1000
C[C@H](Nc1ncnc2scnc12)c1cc2cccc(-c3ccncc3)c2c(=O)n1-c1ccccc1 | < 100 |  | < 100 | 100 to 1000
C[C@H](Nc1ncnc2scnc12)c1cc2cccc(Cl)c2c(=O)n1-c1cccc(C(F)(F)F)c1 | 100 to 1000 |  | 100 to 1000 | > 10000

Structure (SMILES) | IC50 (PIK3CD (Human)) [nM] | IC50 (PIK3CB (Human)) [nM] | IC50 (PIK3CG (human)) [nM] | IC50 (PIK3CA (human)) [nM]
C[C@H](Nc1ncnc2scnc12)c1cc2cccc(-c3ccc(F)c(F)c3)c2c(=O)n1-c1ccccc1 | < 100 | > 10000 | < 100 | 
COc1ncc(-c2cccc3cc([C@H](C)Nc4ccnc5scnc45)n(-c4ccccc4)c(=O)c23)cn1 | < 100 | > 10000 | 100 to 1000 | 
C[C@H](Nc1ncnc2scnc12)c1cc2cccc(-c3cnc4ccoc4c3)c2c(=O)n1-c1ccccc1 | < 100 |  | < 100 | 100 to 1000
C[C@H](Nc1ncnc2scnc12)c1cc2cccc(-c3cnc(N)nc3)c2c(=O)n1-c1ccccc1 | < 100 |  | < 100 | 100 to 1000
C[C@H](Nc1ncnc2scc(-c3ccccc3)c12)c1cc2cccc(Cl)c2c(=O)n1-c1ccccc1 | 100 to 1000 | > 10000 |  | > 10000
Cc1ccnc2cc(C(C)Nc3ncnc4scnc34)n(-c3ccccc3)c(=O)c12 (stereo unspecified) | < 100 |  | < 100 | > 10000
C[C@H](Nc1ncnc2scnc12)c1cc2cccc(C(=O)N3CCOCC3)c2c(=O)n1-c1ccccc1 | 100 to 1000 | > 10000 |  | > 10000
C[C@H](Nc1ncnc2scnc12)c1cc2cccc(-c3cnc4c(c3)CCCO4)c2c(=O)n1-c1ccccc1 | < 100 |  | < 100 | 100 to 1000
Cc1nn(C)cc1-c1cccc2cc([C@H](C)Nc3ncnc4scnc34)n(-c3ccccc3)c(=O)c12 | < 100 |  | < 100 | 100 to 1000
Cc1cc(-c2cccc3cc([C@H](C)Nc4ncnc5scnc45)n(-c4ccccc4)c(=O)c23)ccn1 | < 100 |  | < 100 | 100 to 1000
C[C@H](Nc1ncnc2scnc12)c1cc2cccc(-c3ccc(N(C)C)nc3)c2c(=O)n1-c1ccccc1 | < 100 | > 10000 | < 100 | 
COc1cc(-c2cccc3cc([C@H](C)Nc4ncnc5scnc45)n(-c4ccccc4)c(=O)c23)ccn1 | < 100 |  | < 100 | 100 to 1000
Cc1sc2ncnc(N[C@@H](C)c3cc4cccc(Cl)c4c(=O)n3-c3ccccc3)c2c1C | < 100 | > 10000 |  | > 10000
Cc1cccc2cc([C@H](C)Nc3ncnc4scnc34)n(-c3cccc(F)c3)c(=O)c12 | < 100 | 100 to 1000 | < 100 | 
C[C@H](Nc1ncnc2scnc12)c1cc2cccc(-c3ccoc3)c2c(=O)n1-c1ccccc1 | < 100 |  | < 100 | 100 to 1000
C[C@H](Nc1ncnc2scnc12)c1cc2cccc(-c3ccc(N)nc3)c2c(=O)n1-c1ccccc1 | < 100 |  | < 100 | 100 to 1000
CC(C)Cn1cc(-c2cccc3cc([C@H](C)Nc4ncnc5scnc45)n(-c4ccccc4)c(=O)c23)cn1 | < 100 | > 10000 | 100 to 1000 | 
COc1ncc(-c2cccc3cc([C@H](C)Nc4ncnc5scnc45)n(-c4cccc(F)c4)c(=O)c23)cn1 | < 100 | > 10000 | 100 to 1000 | 
C[C@H](Nc1ncnc2scnc12)c1cc2cccc(-c3cccc(N(C)C)c3)c2c(=O)n1-c1ccccc1 | < 100 |  | < 100 | 100 to 1000
C[C@H](Nc1ncnc2scnc12)c1cc2cccc(C=O)c2c(=O)n1-c1ccccc1 | < 100 | 100 to 1000 | < 100 | 
C[C@H](Nc1ncnc2scnc12)c1cc2cccc(Cl)c2c(=O)n1C | < 100 | < 100 | < 100 | 
